Results taken from US20110039860A1, “SOLUBLE EPOXIDE HYDROLASE INHIBITORS, COMPOSITIONS CONTAINING SUCH COMPOUNDS AND METHODS OF TREATMENT” (priority 2008, published 2011).

Target: T1, human sEH enzyme (Homo sapiens, UniProt P34913)
T1 construct: His-tag (pET100 vector) (N, cleaved yes); made in house; host or cells: E. coli
T1 sequence (P34913 1-555): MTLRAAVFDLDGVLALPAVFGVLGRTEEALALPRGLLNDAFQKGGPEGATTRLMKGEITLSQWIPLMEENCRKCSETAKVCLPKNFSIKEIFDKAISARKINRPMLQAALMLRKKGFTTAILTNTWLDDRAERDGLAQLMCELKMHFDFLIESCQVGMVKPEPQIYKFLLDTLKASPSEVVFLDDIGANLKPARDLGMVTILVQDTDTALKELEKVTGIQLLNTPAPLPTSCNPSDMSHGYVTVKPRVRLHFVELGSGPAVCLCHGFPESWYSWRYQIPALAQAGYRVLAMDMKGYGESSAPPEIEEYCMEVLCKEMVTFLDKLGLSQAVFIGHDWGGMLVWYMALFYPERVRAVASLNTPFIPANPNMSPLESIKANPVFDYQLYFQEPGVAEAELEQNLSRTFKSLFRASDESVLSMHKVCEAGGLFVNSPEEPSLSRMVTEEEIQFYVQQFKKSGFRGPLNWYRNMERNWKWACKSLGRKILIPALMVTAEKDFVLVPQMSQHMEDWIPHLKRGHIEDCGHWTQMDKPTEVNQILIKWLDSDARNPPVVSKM
Test: sEH human enzyme assay (fluorescence based enzyme in vitro assay)
Format: biochemical
Conditions: recombinant human sEH about 1 nM, fluorescence substrate S7 10 uM, 25° C.; read-out: IC50 [nM] for human sEH enzyme inhibition
Source text: Preparation of Recombinant sEH Human Enzyme
The DNA for expressing sEH was designed based on a […] sEH cDNA, modified to optimize for expression both in E. coli and insect cells. The designed DNA fragment encodes a protein sequence that is identical to full length human sEH, and the DNA was synthesized in vitro. The DNA was then subcloned into the pET100 vector that will generate a fusion protein with an N-terminal His-tag. The recombinant protein was expressed in E. coli. The sEH enzyme was affinity purified by a Ni^++ column. His-tag was removed by Enter Kinase (EK) digestion. The purified enzyme aliquots were frozen and held at −80° C. for later use. Fluorescence Based Enzyme in vitro Assay For each assay (100 ul), an aliquot of enzymes (about 1 nM final concentration) was incubated with a fluorescence substrate, S7 (10 uM final concentration), in sEH assay buffer (25 mM HEPES, […], 0.1 mg/ml BSA) in a 96-well plate. The kinetic reaction reading (Ex330/Em465) was conducted using a plate reader, Spectra max (Molecular Devices) at 25° C.

IC50 [nM] | Compound
1 | Fc1cccc(C(F)(F)F)c1-c1ccc(NCC2CCCCC2)nc1 [Compound I-1, N-(cyclohexylmethyl)-5-[2-fluoro-6-(trifluoromethyl)phenyl]pyridin-2-amine]
19 | O=C(O)[C@H]1CC[C@H](CCNc2ccc(-c3c(F)cccc3C(F)(F)F)cn2)CC1 [Compound I-2]
9 | O=C(c1cccnc1)N1CCC(CNc2ccc(-c3ccccc3C(F)(F)F)cn2)CC1 [Compound I-4]
2 | Fc1cccc(Cl)c1CCNc1ccc(-c2c(F)cccc2C(F)(F)F)cn1 [Compound I-5]
3 | O=C(c1ccccc1C(F)(F)F)N1CCC(CNc2ccc(-c3ccccc3C(F)(F)F)cn2)CC1 [Compound I-6]
32 | FC(F)(F)c1cccnc1-c1ccc(NCC2CCCCC2)nc1 [Compound I-7]
25 | FC(F)(F)c1ccccc1-c1ccc(NCc2ccccc2)nc1 [Compound I-8]
832 | FC(F)(F)c1ccccc1-c1ccc(NCCC(c2ccccc2)c2ccccc2)nc1 [Compound I-9]
31 | FC(F)(F)c1ccccc1-c1ccc(NCc2cccc3ccccc23)nc1 [Compound I-10]
32 | Clc1ccccc1-c1ccc(NCC2CCCCC2)nc1 [Compound I-11]
52 | FC(F)(F)Oc1cccc(CNc2ccc(-c3ccccc3C(F)(F)F)cn2)c1 [Compound I-12]
18 | O=S(=O)(c1ccccc1C(F)(F)F)N1CCC(CNc2ccc(-c3ccccc3C(F)(F)F)cn2)CC1 [Compound I-13]
7 | O=C(N[C@H]1CC[C@H](CNc2ccc(-c3ccccc3C(F)(F)F)cn2)CC1)c1ccccc1C(F)(F)F [Compound I-14]
8 | CC(C)(C)OC(=O)N1CCC(CNc2ccc(-c3cnccc3C(F)(F)F)cn2)CC1 [Compound I-15]
53 | FC(F)(F)c1cc(-c2nnn[nH]2)ccc1-c1ccc(NCC2CCCCC2)nc1 [Compound I-16]
8 | FC(F)(F)c1ccccc1-c1ccc(NCC2CCCCC2)nn1 [Compound I-17]

IC50 [nM] | Compound
651 | FC(F)(F)c1ccccc1-c1cnc(NCC2CCCCC2)cn1 [Compound I-18]
92 | FC(F)(F)c1ccccc1-c1ccc(NCc2cccnc2)nc1 [Compound I-19]
67 | Fc1cccc(C(F)(F)F)c1-c1ccc(NCCc2c[nH]cn2)nc1 [Compound I-20]
100 | FC(F)(F)c1ccccc1-c1ccc(NCCc2c[nH]cn2)nc1 [Compound I-21]
130 | O=C(O)C12CCC(CNc3ccc(-c4c(F)cccc4C(F)(F)F)cn3)(CC1)C2 [Compound I-22]
7 | FC(F)(F)c1ccccc1-c1ccc(NCCN2CCN(c3cccc(Cl)c3)CC2)nc1 [Compound I-23]
200 | FC(F)(F)c1ccccc1-c1ccc(NC2CCOCC2)nc1 [Compound I-24]
26 | FC(F)(F)c1ccnc(N2CCN(CCNc3ccc(-c4ccccc4C(F)(F)F)cn3)CC2)n1 [Compound I-25]
53 | FC(F)(F)c1ccccc1-c1ccc(NCC2CC2)nc1 [Compound I-26]
200 | O=C(O)C1CCN(C(=O)c2ccc(-c3ccc(NCCc4c(F)cccc4Cl)nc3)c(C(F)(F)F)c2)CC1 [II-1, 1-[4-(6-{[2-(2-chloro-6-fluorophenyl)ethyl]amino}pyridin-3-yl)-3-(trifluoromethyl)benzoyl]piperidine-4-carboxylic acid]
66 | O=C(O)CCCOc1ccc(-c2ccc(NCC3CCCCC3)nc2)c(C(F)(F)F)c1 [II-2]
5 | O=C(O)c1cccc(-c2ccc(-c3ccc(NCC4CCCCC4)nc3)c(C(F)(F)F)c2)c1 [II-3]
4 | O=C(NCC1CCCCC1)c1ccc(-c2ccc(NCC3CCCCC3)nc2)c(C(F)(F)F)c1 [II-4]
4 | NC(=O)c1ccc(-c2ccc(NCC3CCCCC3)nc2)c(C(F)(F)F)c1 [II-5]
3 | FC(F)(F)c1cc(-c2cccnc2)nn1-c1ccc(NCC2CCCCC2)nc1 [III-1, N-(cyclohexylmethyl)-5-[3-pyridin-3-yl-5-(trifluoromethyl)-1H-pyrazol-1-yl]pyridin-2-amine]
